The data set in a line: AUC in non-small-cell lung cancer/colorectal cancer patient serum at 960 mg, po. It is filed as ADME, cell-free. Also on record: dose 960 mg. Conditions: human.

By AUC is commonly meant concentration integrated over time. A low value points to low exposure.

Each structure is given as a SMILES string.

For the compound `C=CC(=O)N1CCN(c2nc(=O)n(-c3c(C)ccnc3C(C)C)c3nc(-c4c(O)cccc4F)c(F)cc23)[C@@H](C)C1` [SOTORASIB], the AUC amounted to 65300 ng·h/mL.

These data come from ChEMBL document CHEMBL4834488, “Improved Synthesis of New FDA-Approved Treatment for KRAS G12C Mutation in Non-small Cell Lung Cancer” (ACS Med Chem Lett, 2021).
